Molecules are shown by their SMILES. Several values for one entry are separate records, joined by “and”; a condition that tells them apart may be missing. Equal entries are not always repeated. Where a SMILES comes first, the peptide text is derived from it.

Sequence of Mu-type opioid receptor (P33535 whole entry): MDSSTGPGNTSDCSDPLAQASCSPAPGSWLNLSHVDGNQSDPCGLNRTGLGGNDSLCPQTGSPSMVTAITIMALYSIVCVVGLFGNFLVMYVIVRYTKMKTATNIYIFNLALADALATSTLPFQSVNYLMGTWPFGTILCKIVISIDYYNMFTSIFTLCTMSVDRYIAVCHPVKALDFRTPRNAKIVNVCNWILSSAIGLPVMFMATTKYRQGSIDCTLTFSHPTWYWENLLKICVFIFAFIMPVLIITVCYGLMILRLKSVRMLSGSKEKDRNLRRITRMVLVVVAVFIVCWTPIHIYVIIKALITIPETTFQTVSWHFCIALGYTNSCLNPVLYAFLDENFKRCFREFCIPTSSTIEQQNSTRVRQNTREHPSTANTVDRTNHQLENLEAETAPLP

The assay addresses Mu-type opioid receptor (Rattus norvegicus, UniProt P33535).
One may read the Ki as a dissociation constant, usually derived from enzyme kinetics or from competition with a known ligand. Regarding `CC(C)[C@H](NC(=O)[C@H](Cc1ccccc1)NC(=O)[C@@H]1CCCN1C(=O)[C@@H](N)Cc1ccc(O)cc1)C(N)=O` (H-YPFV-NH2), the Ki is 0.037 µM and 0.0161 µM.

As for `NC(=O)[C@@H]1CCCN1C(=O)[C@H](Cc1ccccc1)NC(=O)[C@@H]1CCCN1C(=O)[C@@H](N)Cc1ccc(O)cc1` [CAS_79805-24-6] (H-YPFP-NH2), the inhibition constant (Ki) came out at 1.16 µM.

Take `NC(=O)[C@@H]1CCCN1C(=O)[C@@H](Cc1ccccc1)NC(=O)[C@@H]1CCCN1C(=O)[C@@H](N)Cc1ccc(O)cc1` [Morphiceptin] (HELM PEPTIDE1{Y.P.[dF].P.[am]}$$$$V2.0): the Ki was 0.063 µM and 0.0349 µM.

(Values after BindingDB's records for PubMed 3033464 (Burroughs Wellcome, 1987).)
